Results published in patent US12624012B2, “14-chloro-β-elemene nitric oxide donor derivative and preparation method and use thereof” (HANGZHOU NORMAL UNIVERSITY, priority 2021, dated 2026).
Where two headings read alike, the source gives them in different places.

Experiments:
[1] = system: human brain glioma U87MG-LUC; test: In vivo anti-tumor activity against malignant brain glioma (in situ U87MG-LUC model); parameters: species or system BABLc/nude mice; conditions: for growth of malignant brain gliomas in mice: after administration for 3 weeks; for brain weight / living and physical conditions of mice / tumor volume / bioluminescence signal intensity of gliomas: versus model group; for bioluminescence signal intensity of gliomas: which increases rapidly
Excerpt: • Source, germ line, strain: BABLc/nude mice, provided by Shanghai Slaughter Laboratory Animal Co., Ltd., China. • Experimental animal production license: SOCK (Shanghai) 2017-0005 • Certificate of Conformity No.: 20170005040021 • Experimental animal use license: SYXK (Su) 2017-0040 • Age: 4-5 weeks • Sex: female • Number of animals: 5 animals per group, 15 animals in total Experimental Instrument: • Small animal in vivo 3D imaging system Spectrum, PerkinElmer
The cultured human brain glioma U87MG-LUC cell suspension with a concentration of 5×10^7 cells/mL was collected and each animal was inoculated in situ with 20 μL of the cell suspension. 10% chloral hydrate was injected intraperitoneally to anesthetize the mice, and the heads of the mice were fixed with a stereotaxic instrument. The skin of the head was disinfected with an alcohol swab. The skin of the head was cut along the direction of midline of the brain at its slightly right. The right hemisphere was taken as the reference point for fontanelle, 2 mm to the right of the midline, and 1 mm in front as the entry point, and the skull was ground open with a micro-abrasive drill. The cells were fully resuspended with a gun head, a syringe was used to extract the cell suspension. A vertical needle fixed by a stereotaxic instrument was used to feed 3.5 mm and quit 0.5 mm, then stood for 1 min and slowly injected the cells. After injection, the needle was stood for 1 min and slowly withdrawn. Alcohol swabs were used to disinfect the skin, and mice were put back into the feeding cages to wake up naturally after suturing the skin with stitches.
After 14 days of cell inoculation, the animals were randomly grouped, with 5 animals in each group. At the same time, each group of nude mice began to administer drugs. The drug administration protocol is shown in the group and drug administration protocol. At the end of the experiment, the nude mice were executed immediately. The brain tissues were surgically stripped, photographed, and weighed.
Two animals in each group were selected and injected intraperitoneally with Luc bioluminescence signal substrate, 100 μL/each animal, before administration, 1 week, 2 weeks, and 3 weeks after drug administration, respectively. 10 min later, the mice were anesthetized with isoflurane and placed on black box loading platform of an instrument for in vivo imaging detection to observe the bioluminescence signal of in situ tumors in mice's brains.

[2] = system: U87MG; test: In vitro anti-tumor activity evaluation test (CCK-8), U87MG; format: cell-based, human; conditions: U87MG, 72 h; for inhibition at 1 µM: read-out: Inhibitory rates against tumor cell lines; for IC50: read-out: IC50 against different tumor cell lines
Method: (§1) • (1) Cells were digested and counted. Cell suspensions (H520, SW620 5.0×10^4 cells/mL, and U87MG 3.5×10^4 cells/mL) were prepared. 100 μL of cell suspension was added to each well of a 96-well cell culture plate. • (2) The 96-well cell culture plate was incubated in a 37° C., 5%, CO2 incubator for 24 h. • (3) A drug was diluted with a culture medium to a desired working solution concentration. 100 μL of the corresponding drug-containing culture medium was added to each well. At the same time, a negative control group and a positive control group were set up. • (4) The 96-well cell culture plate was incubated in a 37° C., 5%, CO2 incubator for 72 h. • (5) The 96-well plate was stained with CCK-8, and at λ=450 nm, the OD value was determined. • 1) 10 μL of CCK-8 was added to each well. The culture plate continued to be incubated in the incubator for 2-3 h. • 2) The culture plate was rocked for 10 min to gently mix and remove air bubbles from the 96-well plate. • 3) At λ=450 nm, the OD value of each well was read by the enzyme marker, and the inhibitory rates were calculated. • (6) According to the following equation (1), the growth inhibitory rate of the tumor cells was obtained. The obtained results were substituted into an IC 50 calculation software SPSS17.0 to find out the IC50 value.

[3] = In vitro NO release test (incubation with L-cysteine, OD at 550 nm); conditions: 100 μM solution with cysteine solution, 37° C.
Method: • (1) Sodium nitrite solutions with different concentrations were prepared. A calibration curve was drawn. • (2) The sample was treated. A 100 μM solution was prepared. 2.5 mL of the prepared compound solution and 2.5 mL of the cysteine solution were taken and incubated at 37° C. for 120 min, and the resulting mixture was sampled at different time points. • (3) A blank hole and a standard hole were set. 160 μL of the sample was collected and mixed evenly with 0.08 mL of a developer and stood at 37° C. for 15 min. At λ=550 nm, the OD value of absorbance was measured by the enzyme marker. The NO release levels were obtained by substituting the value into the standard curve.

[4] = system: NCI-H520; test: In vitro anti-tumor activity evaluation test (CCK-8), NCI-H520; format: cell-based, human; conditions: NCI-H520, 72 h; for inhibition at 1 µM: read-out: Inhibitory rates against tumor cell lines; for IC50: read-out: IC50 against different tumor cell lines
Method: as §1

[5] = system: SW620; test: In vitro anti-tumor activity evaluation test (CCK-8), SW620; format: cell-based, human; conditions: SW620, 72 h; for inhibition at 1 µM: read-out: Inhibitory rates against tumor cell lines; for IC50: read-out: IC50 against different tumor cell lines
Method: as §1

For C=C[C@]1(C)CC[C@@H](C(=C)CN(C)CCOC(=O)CCCC(=O)OCC#CCOc2no[n+]([O-])c2S(=O)(=O)c2ccccc2)C[C@H]1C(=C)CCl [Example 4], the “growth of malignant brain gliomas in mice” value [1] was “effectively inhibited”, the “blocking of tumor growth” value ([1]; last week of administration (3 weeks)) was over 90% and the brain weight [1] was “significantly lighter than that of the model group”. For the same compound, the “living and physical conditions of mice” value [1] was “much better than the model group”, the tumor volume [1] was “significantly smaller than that in the model group” and the “bioluminescence signal intensity of gliomas” value [1] was “declines dramatically”. For the same compound, the inhibition at 1 µM ([2]; Homo sapiens, U-87 MG, 1 μM) was 55.5 ± 1.9%, the IC50 ([2]; Homo sapiens, U-87 MG) was 369 ± 13 nM and the NO-release concentrations ([3]; 5 min) was 12.53 µM. For the same compound, the NO-release concentrations ([3]; 10 min) was 14.80 µM, the NO-release concentrations ([3]; 20 min) was 19.55 µM and the NO-release concentrations ([3]; 30 min) was 23.6 µM. For the same compound, the NO-release concentrations ([3]; 60 min) was 42.31 µM, the NO-release concentrations ([3]; 90 min) was 66.97 µM and the NO-release concentrations ([3]; 120 min) was 93.18 µM. For the same compound, the inhibition at 1 µM ([4]; Homo sapiens, 1 μM) was 48.7 ± 2%, the IC50 ([4]; Homo sapiens) was 719 ± 17 nM and the inhibition at 1 µM ([5]; Homo sapiens, SW-620, 1 μM) was 47.5 ± 3.7%. The IC50 ([5]; Homo sapiens, SW-620) was 858 ± 33 nM.

For C=C[C@]1(C)CC[C@@H](C(=C)CN2CCCC(COC(=O)CCCC(=O)OCC#CCOc3no[n+]([O-])c3S(=O)(=O)c3ccccc3)C2)C[C@H]1C(=C)CCl (stereo partly drawn) [Example 20, 4-((4-((5-((1-(2-((1R,3R,4S)-3-(3-chloroprop-1-en-2-yl)-4-methyl-4-vinylcyclohexyl)allyl)piperidin-3-yl)methoxyl)-5-oxopentanoyl)oxy)but-2-yn-1-yl)oxy)-3-(phenylsulfonyl)-1,2,5-oxadiazole 2-oxide], the inhibition at 1 µM ([2]; Homo sapiens, U-87 MG, 1 μM) was 53.9 ± 0.6%, the IC50 ([2]; Homo sapiens, U-87 MG) was 1110 ± 52 nM and the NO-release concentrations ([3]; 5 min) was 15.19 µM. The NO-release concentrations ([3]; 10 min) was 17.57 µM, the NO-release concentrations ([3]; 20 min) was 21.33 µM and the NO-release concentrations ([3]; 30 min) was 25.52 µM. For the same compound, the NO-release concentrations ([3]; 60 min) was 39.29 µM, the NO-release concentrations ([3]; 90 min) was 58.12 µM and the NO-release concentrations ([3]; 120 min) was 77.28 µM. The inhibition at 1 µM ([4]; Homo sapiens, 1 μM) was 44.5 ± 2.4%, the IC50 ([4]; Homo sapiens) was 1180 ± 66 nM and the inhibition at 1 µM ([5]; Homo sapiens, SW-620, 1 μM) was 43.2 ± 1.8%.

C=C[C@]1(C)CC[C@@H](C(=C)CN2CCN(CCOC(=O)CCC(=O)OCCOc3no[n+]([O-])c3S(=O)(=O)c3ccccc3)CC2)C[C@H]1C(=C)CCl [Example 21, 4-(2-((4-(2-(4-(2-((1R,3R,4S)-3-(3-chloroprop-1-en-2-yl)-4-methyl-4-vinylcyclohexyl)allyl)piperazin-1-yl)ethyoxyl)-4-oxobutanoyl)oxy)ethyoxyl)-3-(phenylsulfonyl)-1,2,5-oxadiazole 2-oxide] showed an inhibition at 1 µM ([2]; Homo sapiens, U-87 MG, 1 μM) of 52.6 ± 1%, an IC50 ([2]; Homo sapiens, U-87 MG) of 926 ± 52 nM and an NO-release concentrations ([3]; 5 min) of 0.08 µM. It also gave an NO-release concentrations ([3]; 10 min) of 0.41 µM, an NO-release concentrations ([3]; 20 min) of 0.99 µM and an NO-release concentrations ([3]; 30 min) of 1.64 µM. For the same compound, the NO-release concentrations ([3]; 60 min) was 2.98 µM, the NO-release concentrations ([3]; 90 min) was 6.43 µM and the NO-release concentrations ([3]; 120 min) was 10.20 µM. It also gave an inhibition at 1 µM ([4]; Homo sapiens, 1 μM) of 47.3 ± 2.6% and an inhibition at 1 µM ([5]; Homo sapiens, SW-620, 1 μM) of 43.6 ± 2.5%.

C=C[C@]1(C)CC[C@@H](C(=C)CN2CCN(CCOC(=O)CCCC(=O)OCCOc3no[n+]([O-])c3S(=O)(=O)c3ccccc3)CC2)C[C@H]1C(=C)CCl [Example 22] gave an inhibition at 1 µM ([2]; Homo sapiens, U-87 MG, 1 μM) of 52.4 ± 2%, an IC50 ([2]; Homo sapiens, U-87 MG) of 372 ± 6 nM and an NO-release concentrations ([3]; 5 min) of 0.33 µM. It also gave an NO-release concentrations ([3]; 10 min) of 0.90 µM, an NO-release concentrations ([3]; 20 min) of 1.35 µM and an NO-release concentrations ([3]; 30 min) of 1.91 µM. For the same compound, the NO-release concentrations ([3]; 60 min) was 4.05 µM, the NO-release concentrations ([3]; 90 min) was 7.20 µM and the NO-release concentrations ([3]; 120 min) was 10.51 µM. It also gave an inhibition at 1 µM ([4]; Homo sapiens, 1 μM) of 44.1 ± 2.4%, an IC50 ([4]; Homo sapiens) of 962 ± 54 nM and an inhibition at 1 µM ([5]; Homo sapiens, SW-620, 1 μM) of 42.8 ± 0.5%.

In the case of C=C[C@]1(C)CC[C@@H](C(=C)CN2CCN(CCOC(=O)CCC(=O)OCC#CCOc3no[n+]([O-])c3S(=O)(=O)c3ccccc3)CC2)C[C@H]1C(=C)CCl [Example 23, 4-((4-((4-(2-(4-(2-((1R,3R,4S)-3-(3-chloroprop-1-en-2-yl)-4-methyl-4-vinylcyclohexyl)allyl)piperazin-1-yl)ethyoxyl)-4-oxobutanoyl)oxy)but-2-yn-1-yl)oxy)-3-(phenylsulfonyl)-1,2,5-oxadiazole 2-oxide], the inhibition at 1 µM ([2]; Homo sapiens, U-87 MG, 1 μM) is reported as 33.4 ± 1.5%, the NO-release concentrations ([3]; 5 min) is reported as 4.74 µM and the NO-release concentrations ([3]; 10 min) is reported as 5.95 µM. For the same compound, the NO-release concentrations ([3]; 20 min) was 7.49 µM, the NO-release concentrations ([3]; 30 min) was 7.63 µM and the NO-release concentrations ([3]; 60 min) was 8.44 µM. For the same compound, the NO-release concentrations ([3]; 90 min) was 13.57 µM, the NO-release concentrations ([3]; 120 min) was 17.82 µM and the inhibition at 1 µM ([4]; Homo sapiens, 1 μM) was 30.3 ± 2.9%. It also gave an inhibition at 1 µM ([5]; Homo sapiens, SW-620, 1 μM) of 21.2 ± 2.1%.

Work on C=C[C@]1(C)CC[C@@H](C(=C)CN2CCN(CCOC(=O)CCCC(=O)OCC#CCOc3no[n+]([O-])c3S(=O)(=O)c3ccccc3)CC2)C[C@H]1C(=C)CCl [Example 24, 4-((4-((5-(2-(4-(2-((1R,3R,4S)-3-(3-chloroprop-1-en-2-yl)-4-methyl-4-vinylcyclohexyl)allyl)piperazin-1-yl)ethyoxyl)-5-oxyglutaryl)oxy)but-2-yn-1-yl)oxy)-3-(phenylsulfonyl)-1,2,5-oxadiazole 2-oxide] yielded an inhibition at 1 µM ([2]; Homo sapiens, U-87 MG, 1 μM) of 50.3 ± 1.2%, an IC50 ([2]; Homo sapiens, U-87 MG) of 960 ± 75 nM and an NO-release concentrations ([3]; 5 min) of 10.64 µM. It also gave an NO-release concentrations ([3]; 10 min) of 11.37 µM, an NO-release concentrations ([3]; 20 min) of 12.38 µM and an NO-release concentrations ([3]; 30 min) of 13.68 µM. The NO-release concentrations ([3]; 60 min) was 18.24 µM, the NO-release concentrations ([3]; 90 min) was 25.90 µM and the NO-release concentrations ([3]; 120 min) was 34.64 µM. The inhibition at 1 µM ([4]; Homo sapiens, 1 μM) was 46.8 ± 2.1%, the IC50 ([4]; Homo sapiens) was 1062 ± 2 nM and the inhibition at 1 µM ([5]; Homo sapiens, SW-620, 1 μM) was 43.2 ± 5.5%.

For C=C[C@]1(C)CC[C@@H](C(=C)C)C[C@H]1C(=C)C [β-elemene], the “growth of malignant brain gliomas in mice” value [1] was “effectively inhibited”, the “inhibitory activity (bioluminescence signal of glioma)” value ([1]; first week of administration) was over 20% and the brain weight [1] was “significantly lighter than that of the model group”. The “living and physical conditions of mice” value [1] was “much better than the model group”, the tumor volume [1] was “significantly smaller than that in the model group” and the “bioluminescence signal intensity of gliomas” value [1] was “declines dramatically”. The “Inhibitory rates against tumor cell lines” value (shortened to “Inhibitory rates”) ([2]; 1 μM) was 4.3 ± 2.2%, the IC50 [2] was over 100000 nM and the “Inhibitory rates” value ([4]; 1 μM) was 3.2 ± 0.7%. The IC50 [4] was over 100000 nM, the “Inhibitory rates” value ([5]; 1 μM) was 2.5 ± 4.1% and the IC50 [5] was over 100000 nM.
